Experimental data from US11890288B2, “Sulfonamide or sulfinamide compound having effect of inducing BRD4 protein degradation and pharmaceutical use thereof” (MITSUBISHI TANABE PHARMA CORPORATION, priority 2020, dated 2024).

Key:
[1] = test system: human prostate cancer LNCaP cells; assay: Cytotoxic action on LNCaP cells (WST-8, 96 hr); assay type: cell-based; conditions: 96 hr culture
Method in brief: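 Growth-inhibition format: 96 hr continuous exposure, 37° C, 5% CO2, 10% FBS/RPMI1640, WST-8 read-out. Values are IC50 against the untreated-control survival, taken from the line joining the two points around 50%.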

BRD4 protein = BRD4 protein (Homo sapiens (Human), UniProt O60885); assay: BRD4 protein degradation inducing action in LNCaP cells (immunofluorescence, 6 hr); assay type: cell-based; conditions: anti-BRD4 fluorescence intensity
Method in brief: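 Read-out is BRD4 immunofluorescence intensity (560/572 nm) after 6 hr compound treatment of LNCaP cells in 10% FBS/RPMI1640, with fixation, permeabilization and anti-BRD4 staining. Linear interpolation between the two concentrations flanking 50% of untreated intensity gives DC50.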

Row | SMILES | IC50 [1] | DC50 (BRD4 protein)
1 | CCc1ccc(NS(=O)(=O)c2ccc(CNC(=O)c3ccc(-c4ccc(C5=N[C@@H](CC(=O)OC)c6nnc(C)n6-c6sc(C)c(C)c65)cc4)cc3C)cc2)c2[nH]cc(C#N)c12 [Example Compound 114, methyl [(6S)-4-{4′-[({4-[(3-cyano-4-ethyl-1H-indol-7-yl)sulfamoyl]phenyl}methyl)carbamoyl]-3′-methyl[1,1′-biphenyl]-4-yl}-2,3,9-trimethyl-6H-thieno[3,2-f][1,2,4]triazolo[4,3-a][1,4]diazepin-6-yl]acetate] | 0.34 nM | 0.28 nM
2 | CCc1ccc(NS(=O)(=O)c2ccc(CNC(=O)c3ccc(-c4ccc(C5=N[C@@H](CC(=O)OC)c6nnc(C)n6-c6sc(C)c(C)c65)cc4)c(F)c3)cc2)c2[nH]cc(C#N)c12 [Example Compound 115, methyl [(6S)-4-{4′-[({4-[(3-cyano-4-ethyl-1H-indol-7-yl)sulfamoyl]phenyl}methyl)carbamoyl]-2′-fluoro[1,1′-biphenyl]-4-yl}-2,3,9-trimethyl-6H-thieno[3,2-f][1,2,4]triazolo[4,3-a][1,4]diazepin-6-yl]acetate] | 0.32 nM | 0.13 nM
3 | CCc1ccc(NS(=O)(=O)c2ccc(CNC(=O)c3ccc(-c4ccc(C5=N[C@@H](CC(=O)OC)c6nnc(C)n6-c6sc(C)c(C)c65)cc4)c(Cl)c3)cc2)c2[nH]cc(C#N)c12 [Example Compound 116, methyl [(6S)-4-{2′-chloro-4′-[({4-[(3-cyano-4-ethyl-1H-indol-7-yl)sulfamoyl]phenyl}methyl)carbamoyl][1,1′-biphenyl]-4-yl}-2,3,9-trimethyl-6H-thieno[3,2-f][1,2,4]triazolo[4,3-a][1,4]diazepin-6-yl]acetate] | 0.65 nM | 0.42 nM
4 | CCc1ccc(NS(=O)(=O)c2ccc(CNC(=O)c3ccc(-c4ccc(C5=N[C@@H](CC(=O)OC)c6nnc(C)n6-c6sc(C)c(C)c65)cc4)c(C)c3)cc2)c2[nH]cc(C#N)c12 [Example Compound 117, methyl [(6S)-4-{4′-[({4-[(3-cyano-4-ethyl-1H-indol-7-yl)sulfamoyl]phenyl}methyl)carbamoyl]-2′-methyl[1,1′-biphenyl]-4-yl}-2,3,9-trimethyl-6H-thieno[3,2-f][1,2,4]triazolo[4,3-a][1,4]diazepin-6-yl]acetate] | 0.41 nM | 0.16 nM
5 | CCc1ccc(NS(=O)(=O)c2ccc(CNC(=O)c3ccc(-c4ccc(C5=N[C@@H](CC(=O)OC)c6nnc(C)n6-c6sc(C)c(C)c65)cc4)c(F)c3F)cc2)c2[nH]cc(C#N)c12 [Example Compound 118, methyl [(6S)-4-{4′-[({4-[(3-cyano-4-ethyl-1H-indol-7-yl)sulfamoyl]phenyl}methyl)carbamoyl]-2′,3′-difluoro[1,1′-biphenyl]-4-yl}-2,3,9-trimethyl-6H-thieno[3,2-f][1,2,4]triazolo[4,3-a][1,4]diazepin-6-yl]acetate] | 0.32 nM | 0.14 nM
6 | CCc1ccc(NS(=O)(=O)c2ccc(CNC(=O)c3cc(F)c(-c4ccc(C5=N[C@@H](CC(=O)OC)c6nnc(C)n6-c6sc(C)c(C)c65)cc4)cc3F)cc2)c2[nH]cc(C#N)c12 [Example Compound 119, methyl [(6S)-4-{4′-[({4-[(3-cyano-4-ethyl-1H-indol-7-yl)sulfamoyl]phenyl}methyl)carbamoyl]-2′,5′-difluoro[1,1′-biphenyl]-4-yl}-2,3,9-trimethyl-6H-thieno[3,2-f][1,2,4]triazolo[4,3-a][1,4]diazepin-6-yl]acetate] | 0.45 nM | 0.27 nM
7 | CCc1ccc(NS(=O)(=O)c2ccc(CNC(=O)c3cc(F)c(-c4ccc(C5=N[C@@H](CC(=O)OC)c6nnc(C)n6-c6sc(C)c(C)c65)cc4)cc3C)cc2)c2[nH]cc(C#N)c12 [Example Compound 120, methyl [(6S)-4-{4′-[({4-[(3-cyano-4-ethyl-1H-indol-7-yl)sulfamoyl]phenyl}methyl)carbamoyl]-2′-fluoro-5′-methyl[1,1′-biphenyl]-4-yl}-2,3,9-trimethyl-6H-thieno[3,2-f][1,2,4]triazolo[4,3-a][1,4]diazepin-6-yl]acetate] | 0.41 nM | 0.26 nM
8 | CCc1ccc(NS(=O)(=O)c2ccc([C@@H](C)NC(=O)c3ccc(-c4ccc(C5=N[C@@H](CC(=O)OC)c6nnc(C)n6-c6sc(C)c(C)c65)cc4)c(F)c3)cc2)c2[nH]cc(C#N)c12 [Example Compound 121, methyl [(6S)-4-(4′-{[(1R)-1-{4-[(3-cyano-4-ethyl-1H-indol-7-yl)sulfamoyl]phenyl}ethyl]carbamoyl}-2′-fluoro[1,1′-biphenyl]-4-yl)-2,3,9-trimethyl-6H-thieno[3,2-f][1,2,4]triazolo[4,3-a][1,4]diazepin-6-yl]acetate] | 0.22 nM | 0.17 nM
9 | CCc1ccc(NS(=O)(=O)c2ccc([C@@H](C)NC(=O)c3ccc(-c4ccc(C5=N[C@@H](CC(=O)OC)c6nnc(C)n6-c6sc(C)c(C)c65)cc4)c(F)c3F)cc2)c2[nH]cc(C#N)c12 [Example Compound 122, methyl [(6S)-4-(4′-{[(1R)-1-{4-[(3-cyano-4-ethyl-1H-indol-7-yl)sulfamoyl]phenyl}ethyl]carbamoyl}-2′,3′-difluoro[1,1′-biphenyl]-4-yl)-2,3,9-trimethyl-6H-thieno[3,2-f][1,2,4]triazolo[4,3-a][1,4]diazepin-6-yl]acetate] | 0.39 nM | 0.14 nM
10 | CCc1ccc(NS(=O)(=O)c2ccc([C@@H](C)NC(=O)c3ccc(-c4ccc(C5=N[C@@H](CC(=O)OC)c6nnc(C)n6-c6sc(C)c(C)c65)cc4)cc3C)cc2)c2[nH]cc(C#N)c12 [Example Compound 123, methyl [(6S)-4-(4′-{[(1R)-1-{4-[(3-cyano-4-ethyl-1H-indol-7-yl)sulfamoyl]phenyl}ethyl]carbamoyl}-3′-methyl[1,1′-biphenyl]-4-yl)-2,3,9-trimethyl-6H-thieno[3,2-f][1,2,4]triazolo[4,3-a][1,4]diazepin-6-yl]acetate] | 0.32 nM | 0.21 nM
11 | CCc1ccc(NS(=O)(=O)c2ccc(CCNC(=O)c3ccc(-c4ccc(C5=N[C@@H](CC(=O)OC)c6nnc(C)n6-c6sc(C)c(C)c65)cc4)c(F)c3)cc2)c2[nH]cc(C#N)c12 [Example Compound 124, methyl [(6S)-4-{4′-[(2-{4-[(3-cyano-4-ethyl-1H-indol-7-yl)sulfamoyl]phenyl}ethyl)carbamoyl]-2′-fluoro[1,1′-biphenyl]-4-yl}-2,3,9-trimethyl-6H-thieno[3,2-f][1,2,4]triazolo[4,3-a][1,4]diazepin-6-yl]acetate] | 0.27 nM | 0.095 nM
12 | CCc1ccc(NS(=O)(=O)c2ccc(CCNC(=O)c3ccc(-c4ccc(C5=N[C@@H](CC(=O)OC)c6nnc(C)n6-c6sc(C)c(C)c65)cc4)c(F)c3F)cc2)c2[nH]cc(C#N)c12 [Example Compound 125, methyl [(6S)-4-{4′-[(2-{4-[(3-cyano-4-ethyl-1H-indol-7-yl)sulfamoyl]phenyl}ethyl)carbamoyl]-2′,3′-difluoro[1,1′-biphenyl]-4-yl}-2,3,9-trimethyl-6H-thieno[3,2-f][1,2,4]triazolo[4,3-a][1,4]diazepin-6-yl]acetate] | 0.37 nM | 0.17 nM
13 | CCc1ccc(NS(=O)(=O)c2ccc([C@@H](C)NC(=O)c3ccc(-c4ccc(C5=N[C@@H](CC(=O)OC)c6nnc(C)n6-c6sc(C)c(C)c65)cc4)cc3)cc2)c2[nH]cc(C#N)c12 [Example Compound 127, methyl [(6S)-4-(4′-{[(1R)-1-{4-[(3-cyano-4-ethyl-1H-indol-7-yl)sulfamoyl]phenyl}ethyl]carbamoyl}[1,1′-biphenyl]-4-yl)-2,3,9-trimethyl-6H-thieno[3,2-f][1,2,4]triazolo[4,3-a][1,4]diazepin-6-yl]acetate] | 0.032 nM | 0.024 nM
14 | CCc1ccc(NS(=O)(=O)c2ccc(CCNC(=O)c3ccc(-c4ccc(C5=N[C@@H](CC(=O)OC)c6nnc(C)n6-c6sc(C)c(C)c65)cc4)cc3)cc2)c2[nH]cc(C#N)c12 [Example Compound 128, methyl [(6S)-4-{4′-[(2-{4-[(3-cyano-4-ethyl-1H-indol-7-yl)sulfamoyl]phenyl}ethyl)carbamoyl][1,1′-biphenyl]-4-yl}-2,3,9-trimethyl-6H-thieno[3,2-f][1,2,4]triazolo[4,3-a][1,4]diazepin-6-yl]acetate] | 0.074 nM | 0.039 nM
15 | CCOC(=O)C[C@@H]1N=C(c2ccc(-c3ccc(C(=O)NCc4ccc(S(=O)(=O)Nc5ccc(C)c6c(C#N)c[nH]c56)cc4)cc3)cc2)c2c(sc(C)c2C)-n2c(C)nnc21 [Example Compound 129, ethyl [(6S)-4-{4′-[({4-[(3-cyano-4-methyl-1H-indol-7-yl)sulfamoyl]phenyl}methyl)carbamoyl][1,1′-biphenyl]-4-yl}-2,3,9-trimethyl-6H-thieno[3,2-f][1,2,4]triazolo[4,3-a][1,4]diazepin-6-yl]acetate] | 0.048 nM | 0.033 nM
16 | CCCOC(=O)C[C@@H]1N=C(c2ccc(-c3ccc(C(=O)NCc4ccc(S(=O)(=O)Nc5ccc(C)c6c(C#N)c[nH]c56)cc4)cc3)cc2)c2c(sc(C)c2C)-n2c(C)nnc21 [Example Compound 130, n-propyl [(6S)-4-{4′-[({4-[(3-cyano-4-methyl-1H-indol-7-yl)sulfamoyl]phenyl}methyl)carbamoyl][1,1′-biphenyl]-4-yl}-2,3,9-trimethyl-6H-thieno[3,2-f][1,2,4]triazolo[4,3-a][1,4]diazepin-6-yl]acetate] | 0.05 nM | 0.028 nM
17 | Cc1sc2c(c1C)C(c1ccc(-c3ccc(C(=O)NCc4ccc(S(=O)(=O)Nc5ccc(C)c6c(C#N)c[nH]c56)cc4)cc3)cc1)=N[C@@H](CC(=O)OC(C)C)c1nnc(C)n1-2 [Example Compound 131, isopropyl [(6S)-4-{4′-[({4-[(3-cyano-4-methyl-1H-indol-7-yl)sulfamoyl]phenyl}methyl)carbamoyl][1,1′-biphenyl]-4-yl}-2,3,9-trimethyl-6H-thieno[3,2-f][1,2,4]triazolo[4,3-a][1,4]diazepin-6-yl]acetate] | 0.065 nM | 0.035 nM
